For the assay, the system named is hypoxia-induced VEGF production in HeLa cells. In words: cells. The settings on record: Homo sapiens, HeLa. It is filed as cell-based, human.

A value given as a limit tells only on which side of the number the result lay.

The term EC50 denotes the concentration at which the effect is half-maximal. High values mean weaker potency, low ones greater potency. Turning to `O=C(Oc1ccc(Cl)cc1)N1CCc2c([nH]c3ccc(Cl)cc23)[C@@H]1c1ccc(OCCCNC2CCCC2)cc1` [Compound 1235], the EC50 fell in the range of 8 to 40 nM.
In the case of `CCOC(=O)N1CCc2c([nH]c3ccc(Cl)cc23)[C@@H]1c1ccc(OCCCNC2CCCC2)cc1` [Compound 1236] it was 8 to 40 nM; in that of `C=CCOc1ccc([C@H]2c3[nH]c4ccc(Cl)cc4c3CCN2c2ncccn2)cc1` [Compound 1237], less than 8 nM.
In turn, `CC(C)(C)OC(=O)N1CCc2c([nH]c3ccc(Cl)cc23)[C@@H]1c1ccc(OCCCn2ccnn2)cc1` [Compound 1239] came in with an EC50 of less than 8 nM.
`CC(C)(C)OC(=O)N1CCc2c([nH]c3ccc(Cl)cc23)[C@@H]1c1ccc(OCCCn2nccn2)cc1` [Compound 1240] returned an EC50 of less than 8 nM.
The molecule `Oc1ccc([C@H]2c3[nH]c4ccc(Cl)cc4c3CCN2c2ncccn2)cc1` [Compound 1241] showed an EC50 of 8 to 40 nM.
The molecule `CC1(C)OCC(COc2ccc([C@H]3c4[nH]c5ccc(Cl)cc5c4CCN3c3ncccn3)cc2)CO1` [Compound 1242] had a concentration for a half-maximal effect (EC50) of less than 8 nM.
As for `OCC(CO)COc1ccc(C2c3[nH]c4ccc(Cl)cc4c3CCN2c2ncccn2)cc1` (stereo not drawn) [Compound 1243], the concentration giving a half-maximal response (EC50) lay within 8 to 40 nM.
As for `CC1(C)OC[C@H](CCOc2ccc([C@H]3c4[nH]c5ccc(Cl)cc5c4CCN3c3ncccn3)cc2)O1` [Compound 1244], the figure is less than 8 nM; as for `Clc1ccc2[nH]c3c(c2c1)CCN(c1ncccn1)[C@H]3c1ccc(OC[C@@H]2CO2)cc1` [Compound 1245], 8 to 40 nM.
In the case of `Clc1ccc2[nH]c3c(c2c1)CCN(c1ncccn1)[C@H]3c1ccc(OC[C@H]2CO2)cc1` [Compound 1246] it was 8 to 40 nM; in that of `COc1ccc(C2c3[nH]c4ccc(Cl)cc4c3CCN2C(N)=S)cc1` (stereo not drawn) [Compound 1247], 200 to 1000 nM.
`O[C@H](COc1ccc([C@H]2c3[nH]c4ccc(Cl)cc4c3CCN2c2ncccn2)cc1)CN1CCOCC1` [Compound 1249] yielded a concentration giving a half-maximal response (EC50) of less than 8 nM.
In the case of `CCOC(=O)N1CCc2c([nH]c3ccc(Cl)cc23)[C@@H]1c1ccc(OCCCO)cc1` [Compound 1251] it was less than 8 nM.
`CC(C)OC(=O)N1CCc2c([nH]c3ccc(Cl)cc23)[C@@H]1c1ccc(OCCCO)cc1` [Compound 1252]: the EC50 was less than 8 nM.
As for `O=C(OC1CCCC1)N1CCc2c([nH]c3ccc(Cl)cc23)[C@@H]1c1ccc(OC2CCOCC2)cc1` [Compound 1253], the figure is less than 8 nM; as for `O[C@@H](COc1ccc([C@H]2c3[nH]c4ccc(Cl)cc4c3CCN2c2ncccn2)cc1)CN1CCOCC1` [Compound 1254], less than 8 nM; as for `O=C(Oc1ccc(Cl)cc1)N1CCc2c([nH]c3ccc(Cl)cc23)[C@@H]1c1ccc(OCCCNC(CO)(CO)CO)cc1` [Compound 1255], 40 to 200 nM.
In the case of `OCCCOc1ccc([C@H]2c3[nH]c4ccc(Cl)cc4c3CCN2c2ncccn2)cc1` [Compound 1256] it was less than 8 nM; in that of `O=C(Oc1ccc(Cl)cc1)N1CCc2c([nH]c3ccc(Cl)cc23)[C@@H]1c1ccc(OCCCNCCO)cc1` [Compound 1257], 8 to 40 nM; in that of `O=C(Oc1ccc(Cl)cc1)N1CCc2c([nH]c3ccc(Cl)cc23)[C@@H]1c1ccc(OCCCN(CCO)CCO)cc1` [Compound 1258], less than 8 nM.
For the molecule `CC1(C)OC[C@@H](COc2ccc([C@H]3c4[nH]c5ccc(Cl)cc5c4CCN3C(=O)Oc3ccc(Cl)cc3)cc2)O1` [Compound 1260], the EC50 is less than 8 nM.
In turn, `CCOC(=O)N1CCc2c([nH]c3ccc(Cl)cc23)[C@@H]1c1ccc(OC[C@@H]2COC(C)(C)O2)cc1` [Compound 1261] had an EC50 of less than 8 nM.
As for `C=CCOc1ccc([C@H]2c3[nH]c4ccc(Cl)cc4c3CCN2C(=O)OC2CCCC2)cc1` [Compound 1262], the figure is less than 8 nM; as for `CCOC(=O)N1CCc2c([nH]c3ccc(Cl)cc23)[C@@H]1c1ccc(OCCCNC2CC2)cc1` [Compound 1264], 8 to 40 nM.
As for `CCOC(=O)N1CCc2c([nH]c3ccc(Cl)cc23)C1c1ccc(OC)cc1F` (stereo not drawn) [Compound 1268], the figure is less than 8 nM; as for `CCOC(=O)N1CCc2c([nH]c3ccc(Cl)cc23)[C@@H]1c1ccc(OCCC(O)CNC(C)=O)cc1` (stereo partly drawn) [Compound 1270], 8 to 40 nM; as for `CCOC(=O)N1CCc2c([nH]c3ccc(Cl)cc23)[C@@H]1c1ccc(OCCC(O)CNC(=O)COC)cc1` (stereo partly drawn) [Compound 1271], 8 to 40 nM.
In the case of `CCOC(=O)N1CCc2c([nH]c3ccc(Cl)cc23)[C@@H]1c1ccc(OCCC(O)CN2CCOCC2)cc1` (stereo partly drawn) [Compound 1272] it was less than 8 nM.
Molecule `CCOC(=O)N1CCc2c([nH]c3ccc(Cl)cc23)[C@@H]1c1ccc(OCCC(O)CN(CCO)CCO)cc1` (stereo partly drawn) [Compound 1273] gave an EC50 of 8 to 40 nM.
As for `CCOC(=O)N1CCc2c([nH]c3ccc(Cl)cc23)[C@@H]1c1ccc(OCCC(O)Cn2ccnn2)cc1` (stereo partly drawn) [Compound 1274], the figure is less than 8 nM; as for `CCOC(=O)N1CCc2c([nH]c3ccc(Cl)cc23)[C@@H]1c1ccc(OCCC(O)Cn2nccn2)cc1` (stereo partly drawn) [Compound 1275], less than 8 nM.
In the case of `O=C(Oc1ccc(Cl)cc1)N1CCc2c([nH]c3ccc(Cl)cc23)[C@@H]1c1ccc(OCCC(O)CN2CCOCC2)cc1` (stereo partly drawn) [Compound 1279] it was less than 8 nM; in that of `O=C(Oc1ccc(Cl)cc1)N1CCc2c([nH]c3ccc(Cl)cc23)[C@@H]1c1ccc(OCCC(O)CN(CCO)CCO)cc1` (stereo partly drawn) [Compound 1280], 8 to 40 nM; in that of `CCOC(=O)N1CCc2c([nH]c3ccc(Cl)cc23)[C@@H]1c1ccc(OCC(C)(CO)CO)cc1` [Compound 1283], less than 8 nM.
The molecule `CCOC(=O)N1CCc2c([nH]c3ccc(Cl)cc23)[C@@H]1c1ccc(OCC2(C)COC(C)(C)OC2)cc1` [Compound 1284] came in with an EC50 of less than 8 nM.
Turning to `O=C(OC1CCCC1)N1CCc2c([nH]c3ccc(Cl)cc23)[C@@H]1c1ccc(OCCCO)cc1` [Compound 1285], the half-maximal effective concentration (EC50) was less than 8 nM.
As to `O=C(OC1CCCC1)N1CCc2c([nH]c3ccc(Cl)cc23)[C@@H]1c1ccc(O)cc1` [Compound 1286], the EC50 was 40 to 200 nM.
`CCOC(=O)N1CCc2c([nH]c3ccc(Cl)cc23)[C@@H]1c1ccc(OCCC(O)Cn2cncn2)cc1` (stereo partly drawn) [Compound 1287] had an EC50 of 8 to 40 nM.
In the case of `Cc1ccc(OC(=O)N2CCc3c([nH]c4ccc(Cl)cc34)[C@@H]2c2ccc(OCCC(O)CN(CCO)CCO)cc2)cc1` (stereo partly drawn) [Compound 1288] it was 8 to 40 nM.
Turning to `CC#CCOC(=O)N1CCc2c([nH]c3ccc(Cl)cc23)[C@@H]1c1ccc(OCCCCl)cc1` [Compound 1294], the EC50 is less than 8 nM.
For the molecule `CC(C)OC(=O)N1CCc2c([nH]c3ccc(Cl)cc23)[C@@H]1c1ccc(OCC[C@H](O)CO)cc1` [Compound 1295], the EC50 is less than 8 nM.
In turn, `CC(C)OC(=O)N1CCc2c([nH]c3ccc(Cl)cc23)[C@@H]1c1ccc(OCC(C)(CO)CO)cc1` [Compound 1296] returned an EC50 of 8 to 40 nM.
In turn, `COc1ccc([C@H]2C3Nc4ccc(Cl)cc4C3CCN2C(=O)OC2CCCC2)cc1` (stereo partly drawn) [Compound 1298] showed an EC50 of less than 8 nM.
In the case of `Cc1ccc(OC(=O)N2CCC3c4cc(Cl)ccc4NC3[C@@H]2c2ccc(OCCC(O)CN3CCOCC3)cc2)cc1` (stereo partly drawn) [Compound 1302] it was 40 to 200 nM; in that of `O[C@@H](CCOc1ccc([C@H]2c3[nH]c4ccc(Cl)cc4c3CCN2c2ncccn2)cc1)CN1CCOCC1` [Compound 1303], less than 8 nM.
The molecule `O[C@@H](CCOc1ccc([C@H]2c3[nH]c4ccc(Cl)cc4c3CCN2c2ncccn2)cc1)CN1CCCCC1` [Compound 1304] yielded an EC50 of less than 8 nM.
In turn, `CCN(CC)C[C@@H](O)CCOc1ccc([C@H]2c3[nH]c4ccc(Cl)cc4c3CCN2c2ncccn2)cc1` [Compound 1305] returned a concentration for a half-maximal effect (EC50) of 8 to 40 nM.
As for `CN1CCN(C[C@@H](O)CCOc2ccc([C@H]3c4[nH]c5ccc(Cl)cc5c4CCN3c3ncccn3)cc2)CC1` [Compound 1306], the figure is 8 to 40 nM; as for `CN1CCN(C[C@H](O)COc2ccc([C@H]3c4[nH]c5ccc(Cl)cc5c4CCN3c3ncccn3)cc2)CC1` [Compound 1308], less than 8 nM; as for `CCN(CC)C[C@H](O)COc1ccc([C@H]2c3[nH]c4ccc(Cl)cc4c3CCN2c2ncccn2)cc1` [Compound 1309], 8 to 40 nM.
As for `O[C@H](COc1ccc([C@H]2c3[nH]c4ccc(Cl)cc4c3CCN2c2ncccn2)cc1)CN1CCCCC1` [Compound 1310], the figure is 8 to 40 nM.
The molecule `CCN(CC)C[C@@H](O)COc1ccc([C@H]2c3[nH]c4ccc(Cl)cc4c3CCN2c2ncccn2)cc1` [Compound 1311] came in with an EC50 of 40 to 200 nM.
In the case of `CN1CCN(C[C@@H](O)COc2ccc([C@H]3c4[nH]c5ccc(Cl)cc5c4CCN3c3ncccn3)cc2)CC1` [Compound 1312] it was 8 to 40 nM; in that of `O[C@@H](COc1ccc([C@H]2c3[nH]c4ccc(Cl)cc4c3CCN2c2ncccn2)cc1)CN1CCCCC1` [Compound 1313], 8 to 40 nM.
As for `CC1(C)OC[C@H](CCOc2ccc([C@H]3c4[nH]c5ccc(Cl)cc5c4CCN3C(=O)OCC3CC3)cc2)O1` [Compound 1314], the figure is less than 8 nM.
`CC1(C)OC[C@H](CCOc2ccc([C@H]3c4[nH]c5ccc(Cl)cc5c4CCN3C(=O)OCC3CCC3)cc2)O1` [Compound 1315] had an EC50 of less than 8 nM.
Take `CC1(C)OC[C@H](CCOc2ccc([C@H]3c4[nH]c5ccc(Cl)cc5c4CCN3C(=O)OC3CCCC3)cc2)O1` [Compound 1316]: the half-maximal effective concentration (EC50) was less than 8 nM.
In the case of `CC1(COc2ccc([C@H]3c4[nH]c5ccc(Cl)cc5c4CCN3C(=O)OCC3CC3)cc2)COC(C)(C)OC1` [Compound 1317] it was less than 8 nM.
Consider `CC1(COc2ccc([C@H]3c4[nH]c5ccc(Cl)cc5c4CCN3C(=O)OCC3CCC3)cc2)COC(C)(C)OC1` [Compound 1318], for which the EC50 was less than 8 nM.
In the case of `CC1(COc2ccc([C@H]3c4[nH]c5ccc(Cl)cc5c4CCN3C(=O)OC3CCCC3)cc2)COC(C)(C)OC1` [Compound 1319] it was less than 8 nM; in that of `O=C(OC1CCCC1)N1CCc2c([nH]c3ccc(Cl)cc23)[C@@H]1c1ccc(OCC[C@H](O)CO)cc1` [Compound 1320], less than 8 nM; in that of `CC(CO)(CO)COc1ccc([C@H]2c3[nH]c4ccc(Cl)cc4c3CCN2C(=O)OC2CCCC2)cc1` [Compound 1321], less than 8 nM.
